# Values quoted from earlier work, collected in paper PMC6017357, “In Vitro Inhibitory Effects of Synthetic Cannabinoid EAM-2201 on Cytochrome P450 and UDP-Glucuronosyltransferase Enzyme Activities in Human Liver Microsomes” (Molecules : A Journal of Synthetic Chemistry and Natural …, 2018).
# Read-outs that look alike come from different tables or passages of the source.
# Experiments:
# [1] = tested on: human recombinant CYP2C19; details: mixed-type inhibition, human recombinant CYP2C19 enzymes; read-out: Ki, [S]-mephenytoin hydroxylation activity; cited from earlier work
# human recombinant CYP3A4 = details: competitive inhibition, human recombinant CYP3A4 enzymes; read-out: Ki, CYP3A4-catalyzed diltiazem N-demethylation; cited from earlier work
# UGT1A9 = molecular target: T1, UGT1A9 (Homo sapiens, UniProt O60656); design: method as in PMID 23230132; details: human liver and intestinal microsomes; cited from earlier work
# T1 construct: ultrapooled human liver microsomes (0.2 mg/mL), 5 mM UDPGA; from tissue; host or cells: ultrapooled human liver microsomes
# T1 sequence (O60656 26-530): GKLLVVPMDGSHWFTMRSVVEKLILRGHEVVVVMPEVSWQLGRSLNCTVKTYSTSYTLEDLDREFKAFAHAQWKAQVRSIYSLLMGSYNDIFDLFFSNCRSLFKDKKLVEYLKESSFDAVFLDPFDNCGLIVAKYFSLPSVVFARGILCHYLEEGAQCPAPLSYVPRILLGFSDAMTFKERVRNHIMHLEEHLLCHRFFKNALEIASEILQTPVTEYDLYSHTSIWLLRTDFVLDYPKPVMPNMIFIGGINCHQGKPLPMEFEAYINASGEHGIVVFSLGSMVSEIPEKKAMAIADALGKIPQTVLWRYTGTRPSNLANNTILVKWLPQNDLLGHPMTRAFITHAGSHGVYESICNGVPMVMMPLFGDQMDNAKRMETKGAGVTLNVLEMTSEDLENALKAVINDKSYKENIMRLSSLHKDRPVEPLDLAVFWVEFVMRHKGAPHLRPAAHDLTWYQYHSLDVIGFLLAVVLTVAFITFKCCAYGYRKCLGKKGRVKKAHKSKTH
# UGT2B7 = molecular target: T2, UGT2B7 (Homo sapiens, UniProt P16662); design: method as in PMID 23230132; details: human liver and intestinal microsomes; cited from earlier work
# T2 construct: ultrapooled human liver microsomes (0.2 mg/mL), 5 mM UDPGA; from tissue; host or cells: ultrapooled human liver microsomes
# T2 sequence (P16662 24-529): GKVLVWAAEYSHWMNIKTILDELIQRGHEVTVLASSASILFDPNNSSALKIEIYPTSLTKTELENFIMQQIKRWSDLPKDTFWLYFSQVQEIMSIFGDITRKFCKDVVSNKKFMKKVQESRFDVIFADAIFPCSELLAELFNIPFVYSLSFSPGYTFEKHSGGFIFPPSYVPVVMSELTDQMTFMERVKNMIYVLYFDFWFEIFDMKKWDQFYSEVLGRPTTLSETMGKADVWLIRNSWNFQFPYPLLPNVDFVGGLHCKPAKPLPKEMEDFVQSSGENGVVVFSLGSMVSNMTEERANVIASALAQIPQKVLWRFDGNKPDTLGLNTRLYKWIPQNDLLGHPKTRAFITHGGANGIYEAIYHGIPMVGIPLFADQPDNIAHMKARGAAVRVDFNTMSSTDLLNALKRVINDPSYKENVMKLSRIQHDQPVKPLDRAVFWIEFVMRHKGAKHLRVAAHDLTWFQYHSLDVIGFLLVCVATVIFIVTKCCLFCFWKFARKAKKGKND
# CYP2C8 [2] = molecular target: T3, CYP2C8 (Homo sapiens, UniProt P10632); details: cited from earlier work; for time-dependent inhibition of CYP2C8 activity: human liver microsomes
# T3 sequence (P10632 1-490): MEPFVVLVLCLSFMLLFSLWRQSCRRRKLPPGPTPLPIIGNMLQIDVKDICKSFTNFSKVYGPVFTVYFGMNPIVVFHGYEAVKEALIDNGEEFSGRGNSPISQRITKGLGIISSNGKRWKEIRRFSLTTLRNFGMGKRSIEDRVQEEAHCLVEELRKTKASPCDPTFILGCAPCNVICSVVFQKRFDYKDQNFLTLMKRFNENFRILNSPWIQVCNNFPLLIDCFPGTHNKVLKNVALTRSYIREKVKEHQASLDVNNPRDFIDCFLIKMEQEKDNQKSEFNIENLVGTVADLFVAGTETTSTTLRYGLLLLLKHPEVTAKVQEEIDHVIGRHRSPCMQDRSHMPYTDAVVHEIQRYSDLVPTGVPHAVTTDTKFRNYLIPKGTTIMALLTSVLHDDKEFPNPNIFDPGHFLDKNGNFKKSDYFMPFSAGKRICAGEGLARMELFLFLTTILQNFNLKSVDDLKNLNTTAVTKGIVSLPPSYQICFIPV
# CYP2C9 [3] = molecular target: T4, CYP2C9 (Homo sapiens, UniProt P11712); details: read-out: Ki, CYP2C9-catalyzed diclofenac hydroxylation; mixed or competitive inhibition, human liver microsomes; cited from earlier work
# T4 sequence (P11712 whole entry): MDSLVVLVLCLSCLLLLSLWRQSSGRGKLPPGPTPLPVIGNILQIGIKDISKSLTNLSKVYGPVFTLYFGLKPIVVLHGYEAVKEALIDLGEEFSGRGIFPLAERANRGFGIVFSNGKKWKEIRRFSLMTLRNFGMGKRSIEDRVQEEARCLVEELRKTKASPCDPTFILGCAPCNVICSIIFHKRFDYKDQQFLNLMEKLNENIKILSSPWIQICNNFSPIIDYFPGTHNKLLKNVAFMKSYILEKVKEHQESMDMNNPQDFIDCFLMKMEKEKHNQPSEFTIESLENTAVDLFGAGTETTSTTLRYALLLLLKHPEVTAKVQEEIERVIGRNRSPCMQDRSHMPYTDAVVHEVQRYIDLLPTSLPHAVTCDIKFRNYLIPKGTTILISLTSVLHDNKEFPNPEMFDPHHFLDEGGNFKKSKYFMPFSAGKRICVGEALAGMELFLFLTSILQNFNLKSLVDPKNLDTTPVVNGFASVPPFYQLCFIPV
# CYP2C19 [4] = molecular target: T5, CYP2C19 (Homo sapiens, UniProt P33261); details: human liver microsomes; cited from earlier work
# T5 sequence (P33261 whole entry): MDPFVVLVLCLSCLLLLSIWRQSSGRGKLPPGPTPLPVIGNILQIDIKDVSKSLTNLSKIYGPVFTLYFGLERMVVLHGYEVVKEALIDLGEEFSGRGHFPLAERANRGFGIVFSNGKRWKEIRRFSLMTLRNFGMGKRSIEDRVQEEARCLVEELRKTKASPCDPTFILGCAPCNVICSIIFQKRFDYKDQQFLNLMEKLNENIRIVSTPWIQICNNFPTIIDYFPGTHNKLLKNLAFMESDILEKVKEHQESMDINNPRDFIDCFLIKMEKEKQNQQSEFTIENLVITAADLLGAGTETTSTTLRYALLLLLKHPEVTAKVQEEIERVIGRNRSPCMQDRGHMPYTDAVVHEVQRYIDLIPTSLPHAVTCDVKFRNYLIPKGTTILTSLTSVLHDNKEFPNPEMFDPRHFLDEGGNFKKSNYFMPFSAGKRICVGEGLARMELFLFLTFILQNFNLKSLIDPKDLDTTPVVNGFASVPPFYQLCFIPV
# CYP3A4 [5] = molecular target: T6, CYP3A4 (Homo sapiens, UniProt P08684); details: read-out: Ki, CYP3A4 midazolam 1′-hydroxylation; competitive (AM-2201) and noncompetitive (MAM-2201) inhibition, human liver microsomes; cited from earlier work
# T6 sequence (P08684 whole entry): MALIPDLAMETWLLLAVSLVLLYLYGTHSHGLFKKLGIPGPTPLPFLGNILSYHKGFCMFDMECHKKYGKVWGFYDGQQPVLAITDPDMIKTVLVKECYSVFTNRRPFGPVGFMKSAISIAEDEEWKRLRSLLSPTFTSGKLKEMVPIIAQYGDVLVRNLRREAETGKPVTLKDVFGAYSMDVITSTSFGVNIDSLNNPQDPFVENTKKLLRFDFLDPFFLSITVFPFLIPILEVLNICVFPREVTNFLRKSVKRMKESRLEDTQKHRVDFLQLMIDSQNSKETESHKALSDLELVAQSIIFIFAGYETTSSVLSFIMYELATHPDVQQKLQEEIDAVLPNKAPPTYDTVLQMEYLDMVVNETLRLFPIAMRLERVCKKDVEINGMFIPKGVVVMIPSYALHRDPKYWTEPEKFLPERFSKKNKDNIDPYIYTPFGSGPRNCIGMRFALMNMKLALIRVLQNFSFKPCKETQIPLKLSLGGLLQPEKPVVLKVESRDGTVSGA
# UGT1A3 = molecular target: T7, UGT1A3 (Homo sapiens, UniProt P35503); details: human liver microsomes, cited from earlier work; for Ki: read-out: Ki, UGT1A3-catalyzed chenodeoxycholic acid 24-acyl glucuronidation
# T7 sequence (P35503 29-534): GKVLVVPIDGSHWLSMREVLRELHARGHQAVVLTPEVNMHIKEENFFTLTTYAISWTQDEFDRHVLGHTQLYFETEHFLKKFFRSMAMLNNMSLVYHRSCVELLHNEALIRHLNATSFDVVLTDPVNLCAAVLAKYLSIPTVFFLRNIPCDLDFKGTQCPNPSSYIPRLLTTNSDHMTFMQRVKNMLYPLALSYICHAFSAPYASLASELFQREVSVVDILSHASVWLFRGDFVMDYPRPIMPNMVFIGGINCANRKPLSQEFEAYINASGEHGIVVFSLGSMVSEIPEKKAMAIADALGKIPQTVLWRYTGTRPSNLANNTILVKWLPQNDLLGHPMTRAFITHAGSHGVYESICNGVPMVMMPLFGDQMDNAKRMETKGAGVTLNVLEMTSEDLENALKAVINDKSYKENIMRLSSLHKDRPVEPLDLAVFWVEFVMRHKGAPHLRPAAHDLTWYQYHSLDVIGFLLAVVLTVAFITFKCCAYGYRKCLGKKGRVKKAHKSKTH
# [6] = human liver microsomes; cited from earlier work
# CYP3A4 [7] = molecular target: T6, CYP3A4; details: enzyme source not given; cited from earlier work
# CYP2C9 [8] = molecular target: T4, CYP2C9; design: CYP2C8, CYP2C9, CYP2C19 and CYP3A4 activities in ultrapooled human liver microsomes were evaluated; from tissue; host or cells: ultrapooled human liver microsomes; method as in PMID 18838506; details: typical CYP2C9 mechanism-based inhibitors; cited from earlier work
# CYP2C8 [9] = molecular target: T3, CYP2C8; design: CYP2C8, CYP2C9, CYP2C19 and CYP3A4 activities in ultrapooled human liver microsomes were evaluated; from tissue; host or cells: ultrapooled human liver microsomes; method as in PMID 15304522; details: typical CYP2C8 inhibitors; cited from earlier work
# CYP3A4 [10] = molecular target: T6, CYP3A4; details: human liver microsomes, time-dependent inhibitors with reported clinical drug–drug interaction; cited from earlier work
# CYP2C19 [11] = molecular target: T5, CYP2C19; details: typical mechanism-based CYP2C19 inhibitors; cited from earlier work
smiles,measurement,setting,value
C=C(C)[C@@H]1CCC(C)=C[C@H]1c1c(O)cc(CCCCC)cc1O [cannabidiol],Ki,[1],0.793 µM
same,Ki,human recombinant CYP3A4,1 µM
same,inhibition of UGT1A9 activity,UGT1A9,inhibited
same,inhibition of UGT2B7 activity,UGT2B7,inhibited
"Cc1ccc(C(=O)c2cn(CCCCCF)c3ccccc23)c2ccccc12 [MAM-2201, (1-(5-fluoropentyl)-1H-indol-3-yl)(4-methyl-1-naphthalenyl)-methanone]","inactivation efficiency (kinact/Ki), CYP2C8",CYP2C8 [2],1230 M⁻¹ s⁻¹
same,time-dependent inhibition of CYP2C8 activity,CYP2C8 [2],exhibited time-dependent inhibition
same,Ki,CYP2C9 [3],5.6 µM
same,inhibition of CYP2C19-catalyzed [S]-mephenytoin hydroxylation,CYP2C19 [4],did not inhibit
same,Ki,CYP3A4 [5],5.4 µM
same,Ki,UGT1A3,5 µM
same,number of metabolites,[6],19 metabolites
"CCCCCc1cc(O)c2c(c1)OC(C)(C)[C@@H]1CCC(C)=C[C@@H]21 [THC, ∆9-tetrahydrocannabinol]",Ki,[1],1.93 µM
same,Ki,CYP2C9 [3],1.31 µM
same,inhibition of CYP3A4 activity,CYP3A4 [7],did not inhibit
CC1(C)[C@@H](O)CC[C@]2(C)[C@H]3C(=O)C=C4[C@@H]5C[C@@](C)(C(=O)O)CC[C@]5(C)CC[C@@]4(C)[C@]3(C)CC[C@@H]12 [glycyrrhetinic acid],IC50,"UGT1A3; read-out: IC50, UGT1A3-catalyzed chenodeoxycholic acid 24-acyl glucuronidation, selective UGT1A3 inhibitor",4.3 µM
O=C(O)COc1ccc(C(=O)c2cccs2)c(Cl)c1Cl [tienilic acid],"inactivation efficiency (kinact/Ki), CYP2C9",CYP2C9 [8],142 M⁻¹ s⁻¹
CCCCc1oc2ccccc2c1C(=O)c1cc(I)c(OCCN(CC)CC)c(I)c1 [amiodarone],"inactivation efficiency (kinact/Ki), CYP2C8",CYP2C8 [9],9.5 M⁻¹ s⁻¹
CC[C@H]1OC(=O)[C@H](C)[C@@H](O[C@H]2C[C@@](C)(OC)[C@@H](O)[C@H](C)O2)[C@H](C)[C@@H](O[C@@H]2O[C@H](C)C[C@H](N(C)C)[C@H]2O)[C@](C)(OC)C[C@@H](C)C(=O)[C@H](C)[C@@H](O)[C@]1(C)O [clarithromycin],"inactivation efficiency (kinact/Ki), CYP3A4",CYP3A4 [10],46.7 M⁻¹ s⁻¹
CCCCCc1cc(O)c2c(c1)OC(C)(C)c1ccc(C)cc1-2 [cannabinol],inhibition of UGT1A9 activity,UGT1A9,inhibited
same,inhibition of UGT2B7 activity,UGT2B7,inhibited
same,inhibition of CYP3A4 activity,CYP3A4 [7],did not inhibit
NNCCc1ccccc1 [phenelzine],"inactivation efficiency (kinact/Ki), CYP2C8",CYP2C8 [9],52.2 M⁻¹ s⁻¹
COC(=O)[C@H](c1ccccc1Cl)N1CCc2sccc2C1 [clopidogrel],"inactivation efficiency (kinact/Ki), CYP2C19",CYP2C19 [11],65 M⁻¹ s⁻¹
CC(C(=O)O)c1ccc(C(=O)c2cccs2)cc1 (racemic) [(±)-suprofen],"inactivation efficiency (kinact/Ki), CYP2C9",CYP2C9 [8],18.3 M⁻¹ s⁻¹
O=C(c1cccc2ccccc12)c1cn(CCCCCF)c2ccccc12 [AM-2201],"inactivation efficiency (kinact/Ki), CYP2C8",CYP2C8 [2],430 M⁻¹ s⁻¹
same,time-dependent inhibition of CYP2C8 activity,CYP2C8 [2],exhibited time-dependent inhibition
same,Ki,CYP2C9 [3],3.9 µM
same,inhibition of CYP2C19-catalyzed [S]-mephenytoin hydroxylation,CYP2C19 [4],did not inhibit
same,Ki,CYP3A4 [5],4 µM
same,Ki,UGT1A3,4.3 µM
same,number of metabolites,[6],19 metabolites
